Assay results taken from patent US9492468B2, “Methods and compositions for treatment of acute heart failure” (PERICOR THERAPEUTICS, INC., priority 2008, dated 2016).
Where a name gives a salt, the structure may show the parent alone.

System: TnI
Assay: Plasma troponin I (sandwich ELISA), dose escalation study
Assay type: in vivo, dog
Method: Eight heart failure dogs described in Example 1 were used. Seven of 8 dogs underwent two studies, one with active drug GP-531 tartrate and one with vehicle (placebo) and 1 of 8 dogs underwent only one active drug GP-531 study. The order of active drug and placebo was randomized and performed about one week apart. In 6 of 8 dogs, after baseline hemodynamic, and ventriculographic measurements, vehicle was administered as a continuous intravenous infusion for one hour. At the end of one hour, the active drug GP-531 tartrate was administered in 3 escalating dose of continuous intravenous infusion with each dose maintained for one hour. At the end of the last drug dose, infusion was stopped and a washout period of one hour was instituted. The same infusion rates and times between doses were used when vehicle studies were performed. At the end of each hour, hemodynamic and angiographic measurements were made. Venous blood samples were obtained at baseline and at one hour after each dose. Blood samples (at least 10 mL) were centrifuged at 3000 rpm for 10 minutes and plasma withdrawn and placed in cryostorage tubes and stored upright at −20° C. for future use. In 2 of 8 dogs, active drug was administered as bolus followed by a constant infusion for 3 hours as noted below.
Plasma biomarkers were measured in Groups I and II. Troponin I (TnI) was determined in plasma based on the principle of the double antibody sandwich enzyme-linked immunosorbent assay (ELISA) (Hirano, T., et al., Immunol Today 1990, 11:443-449) and n-terminal brain natriuretic peptide (NT-pro-BNP) based on competitive ELISA (Bonow, R. O. Circulation 1996, 93:1946-1950). Both biomarkers were assayed using commercially available assay kits. Kits for NT proBNP and TnI were purchased from ALPCO Diagnostics, Salem, N.H. Using standard curves and software, the concentration of each biomarker was expressed as ng/ml for TnI and fmol/ml for NT-proBNP.

| Compound | Effect on plasma TnI (Group I HF dogs, all doses (30, 100, 300 μg/kg/min), vs baseline) | Effect on plasma TnI (Group II HF dogs, 30 μg/kg/min, not statistically significant) | Plasma TnI (Group I HF dogs n=3, 1 h washout after 30/100/300 μg/kg/min) [pg/mL] | Plasma TnI (Group I HF dogs n=3, iv 30 μg/kg/min, 1 h) [pg/mL] | Plasma TnI (Group I HF dogs n=3, iv 100 μg/kg/min, 1 h) [pg/mL] | Plasma TnI (Group I HF dogs n=3, iv 300 μg/kg/min, 1 h) [pg/mL] | Plasma TnI (Group II HF dogs n=3, 1 h washout after 3/10/30 μg/kg/min) [pg/mL] | Plasma TnI (Group II HF dogs n=3, iv 3 μg/kg/min, 1 h) [pg/mL] | Plasma TnI (Group II HF dogs n=3, iv 10 μg/kg/min, 1 h) [pg/mL] | Plasma TnI (Group II HF dogs n=3, iv 30 μg/kg/min, 1 h) [pg/mL] |
| --- | --- | --- | --- | --- | --- | --- | --- | --- | --- | --- |
| NC(=O)c1ncn(C2OC(CNCc3ccccc3)C(O)C2O)c1N (stereo not shown) [GP-531 tartrate] | decreased significantly | tended to decrease at the highest dose | – | – | – | – | – | – | – | – |
| NC(=O)c1ncn(C2OC(CNCc3ccccc3)C(O)C2O)c1N [GP-531, 5-amino-1-β-D-(5-benzylamino-5-deoxy-1-β-D-ribofuranosyl)imidazole-4 carboxamide] | – | – | 0.36 ± 0.03 | 0.17 ± 0.03 | 0.13 ± 0.02 | 0.15 ± 0.05 | 0.31 ± 0.05 | 0.51 ± 0.05 | 0.50 ± 0.15 | 0.19 ± 0.05 |
